In brackets after ≈: the same amount, converted by molar mass. Read-outs that look alike come from different tables or passages of the source.
Key:
[1] = test system: Streptococcus faecalis ATCC 10541; assay: Antibacterial spectrum, minimum inhibitory concentration (Table 1); type: cell-based
in vivo = conditions: mouse, ip
Method: The acute toxicity (determined as LD50) is determined in mice by intraperitoneal injection.

[2] = test system: Staphylococcus aureus ATCC 6538P; assay: Antibacterial spectrum, minimum inhibitory concentration (Table 1); type: cell-based; conditions: ATCC6538P, read-out: Minimum Inhibitory Concentration, Staphylococcus aureus ATCC 6538P
[3] = test system: Klebsiella penumoniae ATCC 10031; assay: as above; type: cell-based; conditions: ATCC10031, read-out: Minimum Inhibitory Concentration, Klebsiella penumoniae ATCC 10031
[4] = Lipid-solubility: distribution ratio in butanol/water (1:1) (Table 2); type: physicochemical; conditions: in butanol/water (1:1) at 25° C
From the text: In determining the lipid-solubility, the distribution ratio of the compound in water and butanol (1:1) is used as the standard.

Sarcoma 180 solid tumor = assay: Anti-tumor activity against Sarcoma 180 solid tumor in mice (Table 3); type: in vivo; conditions: male dd-strain mice; one-sixth of LD50 i.p. once daily for 8 days; tumor weight on 10th day after transplantation
Method: Small portions of Sarcoma 180 solid tumor are transplanted subcutaneously into male dd-strain mice of about 20 g body weight. To each of 10 mice transplanted with tumor, a solution containing one-sixth of the LD50 value of the test compound is administered intraperitoneally once daily for 8 days starting on the day following the transplantation.
As a control, an equal volume of saline is injected in the same manner as above. On the 10th day after the transplantation, the mice are sacrificed and the weight of the tumor is measured. The ratio of average tumor weight of test animals to average tumor weight of control animals (T/C) is calculated.

[5] = known; derivatives of U.S. Pat. No. 3,514,452; cited from earlier work
[6] = test system: Gram-nagative and Gram-positive bacteria; conditions: known; cited from earlier work
tumor = conditions: known; cited from earlier work
[7] = Enterococcus faecalis, ATCC10541; read-out: Minimum Inhibitory Concentration, Streptococcus faecalis ATCC 10541

Row | SMILES | MIC [1, 7] | LD50 (in vivo) | MIC [2] | MIC [3] | Distribution Ratio (butanol/water) [4] | Sarcoma 180 (T/C), ratio of average tumor weight of test animals to control animals (Sarcoma 180 solid tumor) | toxicity (in words) [5] | MIC ([1]; Enterococcus faecalis, ATCC10541, read-out: Minimum Inhibitory Concentration, Streptococcus faecalis ATCC 10541) | antibacterial activity (in words) [6] | anti-tumor activity (in words) (tumor)
1 | CCCCCCCCCCCCCC(=O)N1C2CN3C4=C(C(=O)C(N)=C(C)C4=O)C(COC(N)=O)C3(OC)C21 (stereo not drawn) [1a-myristoyl mitomycin C, la-myristoyl mitomycin C] | 1.56 µg/mL (≈ 2.87 µM) | 45 mg/kg | 0.391 µg/mL (≈ 0.718 µM) | > 50 µg/mL |  |  |  |  |  | 
2 | CCCCCCCCCC(=O)N1C2CN3C4=C(C(=O)C(N)=C(C)C4=O)C(COC(N)=O)C3(OC)C21 (stereo not drawn) [1a-decanoyl mitomycin C, la-decanoyl mitomycin C] | > 50 µg/mL | 67.5 mg/kg | 0.782 µg/mL (≈ 1.6 µM) | 12.5 µg/mL (≈ 25.6 µM) | 7.889 |  |  |  |  | 
3 | COC12C(COC(N)=O)C3=C(C(=O)C(C)=C(N)C3=O)N1CC1C2N1C(C)=O (stereo not drawn) [1a-acetyl mitomycin C, reference compound] | 6.25 µg/mL (≈ 16.6 µM) | 23 mg/kg | 1.56 µg/mL (≈ 4.15 µM) | 0.782 µg/mL (≈ 2.08 µM) | 3.749 | 0.48 | much less toxicity than mitomycin C |  |  | 
4 | CCCCCCCC/C=C\CCCCCCCCCCCC(=O)N1C2CN3C4=C(C(=O)C(N)=C(C)C4=O)C(COC(N)=O)C3(OC)C21 (stereo not drawn) [la-ercoyl mitomycin C] |  | 125 mg/kg | > 50 µg/mL | 50 µg/mL (≈ 76.3 µM) |  |  |  | > 50 µg/mL |  | 
5 | CCCCCCCCCCCC(=O)N1C2CN3C4=C(C(=O)C(N)=C(C)C4=O)C(COC(N)=O)C3(OC)C21 (stereo not drawn) [1a-lauroyl mitomycin C, la-lauroyl mitomycin C] | > 50 µg/mL | 44.5 mg/kg | 0.391 µg/mL (≈ 0.757 µM) | > 50 µg/mL |  |  |  |  |  | 
6 | CCCCCCCCCCCCCCCCCC(=O)N1C2CN3C4=C(C(=O)C(N)=C(C)C4=O)C(COC(N)=O)C3(OC)C21 (stereo not drawn) [1a-stearoyl mitomycin C, la-stearoyl mitomycin C] | > 50 µg/mL | 75 mg/kg | > 50 µg/mL | > 50 µg/mL |  |  |  |  |  | 
7 | CCCCCC[C@@H](O)C/C=C\CCCCCCCC(=O)N1C2CN3C4=C(C(=O)C(N)=C(C)C4=O)C(COC(N)=O)C3(OC)C21 (stereo partly drawn) [1a-ricinoleoyl mitomycin C, la-ricinoleoyl mitomycin C] | 0.782 µg/mL (≈ 1.27 µM) | 60 mg/kg | 0.391 µg/mL (≈ 0.636 µM) | 0.782 µg/mL (≈ 1.27 µM) |  | 0.28 |  |  |  | 
8 | CCCCC/C=C\C/C=C\CCCCCCCC(=O)N1C2CN3C4=C(C(=O)C(N)=C(C)C4=O)C(COC(N)=O)C3(OC)C21 (stereo not drawn) [1a-linoleoyl mitomycin C, la-linoleoyl mitomycin C] | 0.782 µg/mL (≈ 1.31 µM) | 110 mg/kg | 0.782 µg/mL (≈ 1.31 µM) | 12.5 µg/mL (≈ 20.9 µM) | 9.665 | 0.35 |  |  |  | 
9 | CC/C=C\C/C=C\C/C=C\CCCCCCCC(=O)N1[C@H]2[C@@H]1CN1C3=C(C(=O)C(N)=C(C)C3=O)[C@@H](COC(N)=O)[C@@]21OC [1a-linolenoyl mitomycin C, la-linolenoyl mitomycin C] | 1.56 µg/mL (≈ 2.63 µM) | 95 mg/kg | 0.782 µg/mL (≈ 1.31 µM) | 6.25 µg/mL (≈ 10.5 µM) |  |  |  |  |  | 
10 | C/C=C/C(=O)N1C2CN3C4=C(C(=O)C(N)=C(C)C4=O)C(COC(N)=O)C3(OC)C21 (stereo not drawn) [1a-crotonoyl mitomycin C, reference compound] | 12.5 µg/mL (≈ 31.1 µM) | 35.5 mg/kg | 1.56 µg/mL (≈ 3.88 µM) | 0.782 µg/mL (≈ 1.94 µM) |  | 0.53 |  |  |  | 
11 | CCCCCCCC/C=C\CCCCCCCC(=O)N1C2CN3C4=C(C(=O)C(N)=C(C)C4=O)C(COC(N)=O)C3(OC)C21 (stereo not drawn) [1a-oleoyl mitomycin C, la-oleoyl mitomycin C] | 1.56 µg/mL (≈ 2.61 µM) | 105 mg/kg | 0.782 µg/mL (≈ 1.31 µM) | > 50 µg/mL |  | 0.31 |  |  |  | 
12 | CCCCCCCCCCCCCCCC(=O)N1C2CN3C4=C(C(=O)C(N)=C(C)C4=O)C(COC(N)=O)C3(OC)C21 (stereo not drawn) [1a-palmitoyl mitomycin C, la-palmitoyl mitomycin C] | 0.782 µg/mL (≈ 1.37 µM) | 75 mg/kg | 0.782 µg/mL (≈ 1.37 µM) | > 50 µg/mL |  |  |  |  |  | 
13 | CCCC(=O)N1C2CN3C4=C(C(=O)C(N)=C(C)C4=O)C(COC(N)=O)C3(OC)C21 (stereo not drawn) [1a-butyryl mitomycin C, reference compound] | 25 µg/mL (≈ 61.8 µM) | 19 mg/kg | 3.12 µg/mL (≈ 7.73 µM) | 3.12 µg/mL (≈ 7.73 µM) | 4.402 | 0.59 | much less toxicity than mitomycin C |  |  | 
14 | CCCCCC/C=C/CCCCCCCCCC(=O)N1[C@H]2[C@@H]1CN1C3=C(C(=O)C(N)=C(C)C3=O)[C@@H](COC(N)=O)[C@@]21OC [1a-vaccenoyl mitomycin C, la-vaccenoyl mitomycin C] | 3.12 µg/mL (≈ 5.22 µM) | 105 mg/kg | 0.782 µg/mL (≈ 1.31 µM) | 50 µg/mL (≈ 83.5 µM) |  | 0.34 |  |  |  | 
15 | COC12C(COC(N)=O)C3=C(C(=O)C(C)=C(N)C3=O)N1CC1NC12 (single isomer, unassigned) [mitomycin C, reference compound] | 0.391 µg/mL (≈ 1.17 µM) |  | 0.049 µg/mL (≈ 0.147 µM) | < 0.025 µg/mL |  |  | very toxic |  | very strong antibacterial activity against Gram-nagative and Gram-positive bacteria | remarkably strong anti-tumor activity
